Reference: patent US5223526A, “Pyrazole carboxanilide fungicides and use” (Monsanto Company, priority 1992, dated 1993)

Columns and labels:
succinate dehydrogenase = biological target: T1, succinate dehydrogenase (Botrytis cinerea, UniProt A0A384J5E4+A0A384J8V8+A0A384JHJ5); assay: Enzyme inhibition: succinate dehydrogenase activity in Botrytis cinerea mitochondria (DCPIP reduction); assay type: biochemical; details: concentration required to inhibit the rate of DCPIP reduction by 50%; Botrytis cinerea isolate Nick mitochondria; read-out: I50 (μM conc.)
T1 construct: succinate-DCPIP reductase assay with KCN
T1 sequence (A0A384J5E4 1-300): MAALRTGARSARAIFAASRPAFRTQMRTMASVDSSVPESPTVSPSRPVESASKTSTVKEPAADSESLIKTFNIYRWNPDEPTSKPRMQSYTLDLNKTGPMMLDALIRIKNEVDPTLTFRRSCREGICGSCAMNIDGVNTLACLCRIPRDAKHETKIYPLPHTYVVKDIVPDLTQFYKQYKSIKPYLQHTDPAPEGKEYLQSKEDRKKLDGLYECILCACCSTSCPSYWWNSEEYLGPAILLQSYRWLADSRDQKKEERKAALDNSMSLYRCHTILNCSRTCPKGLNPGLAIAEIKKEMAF
T1 sequence (A0A384J8V8 1-189): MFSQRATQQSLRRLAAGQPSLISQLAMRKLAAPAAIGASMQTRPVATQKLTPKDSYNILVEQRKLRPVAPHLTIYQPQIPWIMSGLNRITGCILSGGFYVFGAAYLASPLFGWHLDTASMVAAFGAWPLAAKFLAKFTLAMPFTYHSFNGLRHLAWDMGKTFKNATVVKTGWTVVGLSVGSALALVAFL
T1 sequence (A0A384JHJ5 1-192): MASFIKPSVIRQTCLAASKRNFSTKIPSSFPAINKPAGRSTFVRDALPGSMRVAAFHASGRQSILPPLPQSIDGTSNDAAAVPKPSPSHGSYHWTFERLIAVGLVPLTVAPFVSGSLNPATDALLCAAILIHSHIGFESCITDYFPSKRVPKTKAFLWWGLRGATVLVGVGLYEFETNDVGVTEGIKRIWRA
T1 sequence (A0A384K456 1-647 partner): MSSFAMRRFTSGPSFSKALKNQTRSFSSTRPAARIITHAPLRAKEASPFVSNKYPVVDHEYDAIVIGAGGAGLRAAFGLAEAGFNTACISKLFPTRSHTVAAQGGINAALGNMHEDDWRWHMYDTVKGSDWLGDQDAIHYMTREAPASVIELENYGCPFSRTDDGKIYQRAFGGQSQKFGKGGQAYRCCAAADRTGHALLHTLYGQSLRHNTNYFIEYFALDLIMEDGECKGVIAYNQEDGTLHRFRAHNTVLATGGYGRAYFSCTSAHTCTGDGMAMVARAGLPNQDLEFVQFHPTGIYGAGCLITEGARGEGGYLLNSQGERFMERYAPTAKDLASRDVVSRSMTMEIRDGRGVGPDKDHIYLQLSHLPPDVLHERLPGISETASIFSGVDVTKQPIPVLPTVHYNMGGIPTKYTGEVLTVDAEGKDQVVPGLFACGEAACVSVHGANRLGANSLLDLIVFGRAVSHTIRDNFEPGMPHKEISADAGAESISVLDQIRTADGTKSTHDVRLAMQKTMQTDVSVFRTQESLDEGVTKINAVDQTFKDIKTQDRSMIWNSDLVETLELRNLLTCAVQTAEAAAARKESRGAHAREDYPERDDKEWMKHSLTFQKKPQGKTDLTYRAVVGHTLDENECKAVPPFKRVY
How it was run: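 DCPIP (45 μM) reduction at 600 nm tracked with 17 mM succinate, 1 mM KCN and 50 mM potassium phosphate, pH 7.2. Compounds were added in acetone (final 1% v/v), and Botrytis cinerea isolate Nick mitochondrial fraction initiated the reaction. Rates minus endogenous activity gave percentage inhibition, plotted semilog against concentration to derive I50 (μM).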

Rhizoctonia solani = assay: Rice sheath blight; assay type: in vivo; set-up: scale not given here; details: inoculated two days later, rated after 7 days, average of five plants; for Disease Control Rating at 0.5 mg/mL: foliage and soil sprayed with 0.5 mg/mL; for Disease Control Rating at 0.02 mg/mL: foliage and soil sprayed with 0.02 mg/mL; for Disease Control Rating at 0.1 mg/mL: foliage and soil sprayed with 0.1 mg/mL
How it was run: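 Preventive test: R. solani inoculum on rice grain was applied at the plant base two days after spraying foliage and soil with Compound A (0.5, 0.1 or 0.02 mg/mL, water/acetone/Tween 20). Plants aged 11–15 days stood in flood trays; after 7 days at 25 °C and high humidity, disease control was rated against untreated plants, five plants averaged.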

Botrytis cinerea [1] = assay: Vine grey mold (grape berries); assay type: in vivo; details: average of six berries, 7-10 days; for pest or weed control at 50 ppm: grape berries treated with 50 ppm, read-out: % DISEASE CONTROL 50 ppm; for pest or weed control at 200 ppm: grape berries treated with 200 ppm, read-out: % DISEASE CONTROL 200 ppm
How it was run: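 Preventive berry test: compound at 50 or 200 ppm (acetone/water, 0.05% Tween 20) applied one day before inoculation with 10^6 spores/mL Botrytis conidia. After 7-10 days at 20 °C under 12 h light, infected surface area rated; disease control expressed as percent reduction from control mean; repeated-test values averaged.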

Botrytis cinerea [2] = assay: Eggplant grey mold; assay type: in vivo; set-up: scale not given here; details: inoculated 24 h later, rated after 3-4 days; for Disease Control Rating at 20 ppm: eggplant sprayed with 20 ppm; for Disease Control Rating at 100 ppm: eggplant sprayed with 100 ppm; for Disease Control Rating at 500 ppm: eggplant sprayed with 500 ppm
How it was run: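 Protective test: compound formulations (2:3 acetone:water, 0.5% Tween 20; 500, 100 or 20 ppm) sprayed on 14-18-day-old plants, with spore inoculum (4×10^6 spore/mL) applied a day later. Disease control rated on Botrytis lesions after 3-4 days at 23 °C and 100% humidity.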

SMILES | IC50 (succinate dehydrogenase) [µM] | Disease Control Rating at 0.5 mg/mL (Rhizoctonia solani) | pest or weed control at 50 ppm (Botrytis cinerea [1]) [%] | pest or weed control at 200 ppm (Botrytis cinerea [1]) [%] | Disease Control Rating at 20 ppm (Botrytis cinerea [2]) | Disease Control Rating at 100 ppm (Botrytis cinerea [2]) | Disease Control Rating at 500 ppm (Botrytis cinerea [2]) | Disease Control Rating at 0.02 mg/mL (Rhizoctonia solani) | Disease Control Rating at 0.1 mg/mL (Rhizoctonia solani)
Cn1cc(C(=O)Nc2cc(Cl)ccc2C2CCCCC2)c(C(F)F)n1 [Example 93, 1H-pyrazole-4-carboxamide, N-(5-chloro-2-cyclohexylphenyl)-3-(difluoromethyl)-1-methyl-] | 0.044 | 0 | 0 | 15 | 0 | 0 | 0 | – | –
Cn1cc(C(=O)Nc2cc(Cl)ccc2C2CCCCC2)c(C(F)(F)F)n1 [Example 94, 1H-pyrazole-4-carboxamide, N-(5-chloro-2-cyclohexylphenyl)-1-methyl-3-(trifluoromethyl)-] | 0.074 | 0 | 0 | 0 | – | – | 0 | – | –
Cn1cc(C(=O)Nc2ccc(F)cc2C2(C)CCCCC2)c(C(F)F)n1 [Example 95, 1H-pyrazole-4-carboxamide, 3-(difluoromethyl)-N-[4-fluoro-2-(1-methylcyclohexyl)phenyl]-1-methyl-] | 0.64 | 0 | 48 | 26 | – | – | 0 | – | –
Cc1ccc(OC2CCCCC2)c(NC(=O)c2cn(C)nc2C(F)F)c1 [Example 96, 1H-pyrazole-4-carboxamide, N-[2-(cyclohexyloxy)-5-methylphenyl]-3-(difluoromethyl)-1-methyl-] | 0.43 | 0 | 0 | 0 | – | – | 0 | – | –
Cc1ccc(OC2CCCCC2)c(NC(=O)c2cn(C)nc2C(F)(F)F)c1 [Example 97, 1H-pyrazole-4-carboxamide, N-[2-(cyclohexyloxy)-5-methylphenyl]-1-methyl-3-(trifluoromethyl)-] | 0.59 | 0 | 0 | 1 | 0 | 0 | 1 | – | –
Cn1cc(C(=O)Nc2ccc(F)cc2C2(C)CCCCC2)c(C(F)(F)F)n1 [Example 98, 1H-pyrazole-4-carboxamide, N-[4-fluoro-2-(1-methylcyclohexyl)-phenyl]-1-methyl-3-(trifluoromethyl)-] | 0.8 | 0 | 14 | 0 | – | – | 0 | – | –
Cc1c(C(=O)Nc2ccccc2C2CCCCCC2)c(C(F)(F)F)nn1C [Example 99, 1H-pyrazole-4-carboxamide, N-(2-cycloheptylphenyl)-1,5-dimethyl-3-(trifluoromethyl)-] | 0.065 | 3 | 27 | 53 | – | – | 1 | 2 | 3
Cc1c(C(=O)Nc2ccccc2C2CCCC2)c(C(F)(F)F)nn1C [Example 101, 1H-pyrazole-4-carboxamide, N-(2-cyclopentylphenyl)-1,5-dimethyl-3-(trifluoromethyl)-] | 1.4 | 3 | 10 | 16 | – | – | 0 | 0 | 1
Cn1cc(C(=O)Nc2ccccc2C2=CCOCC2)c(C(F)F)n1 [Example 104, 1H-pyrazole-4-carboxamide, 3-(difluoromethyl)-N-[2-(5,6-dihydro-2H-pyran-4-yl)phenyl]-1-methyl-] | 0.77 | 0 | 0 | 48 | – | – | 0 | – | –
Cc1c(C(=O)Nc2ccccc2C2CCCCCC2)c(Cl)nn1C [Example 105, 1H-py-razole-4-carboxamide, 3-chloro-N-(2-cycloheptylphenyl)-1,5-dimethyl-] | 0.26 | 0 | 6 | 0 | 0 | 0 | 1 | – | –
Cc1nn(C)c(Cl)c1C(=O)Nc1ccccc1C1CCCCCC1 [Example 107, 1H-pyrazole-4-carboxamide, 5-chloro-N-(2-cycloheptylphenyl)-1,3-dimethyl-] | 0.055 | 3 | 27 | 49 | – | – | 0 | 1 | 3
Cn1cc(C(=O)Nc2ccccc2C2=CCOCC2)c(C(F)(F)F)n1 [Example 108, 1H-pyrazole-4-carboxamide, N-[2-(5,6-dihydro-2H-pyran-4-yl)phenyl]-1-methyl-3-(trifluoromethyl)-] | 1.6 | 0 | 12 | 0 | – | – | 0 | – | –
Cn1cc(C(=O)Nc2ccccc2C2=CCCCC2)c(C(F)F)n1 [Example 109, 1H-pyrazole-4-carboxamide, N-[2-(1-cyclohexen-1-yl)phenyl]-3-(difluoromethyl)-1-methyl-] | 0.0072 | 3 | 100 | 100 | – | – | 0 | 0 | 1
Cn1cc(C(=O)Nc2ccccc2C2=CCCCC2)c(C(F)(F)F)n1 [Example 110, 1H-pyrazole-4-carboxamide, N-[2-(1-cyclohexen-1-yl)phenyl]-1-methyl-3-(trifluoromethyl)-] | 0.019 | 3 | 97 | 100 | 1 | 2 | 2 | 0 | 0
Cn1cc(C(=O)Nc2ccccc2C2=CCCCCC2)c(C(F)F)n1 [Example 111, 1H-pyrazole-4-carboxamide, N-[2-(1-cyclohepten-1-yl)phenyl]-3-(difluoromethyl)-1-methyl-] | 0.0038 | 3 | 99 | 100 | 1 | 1 | 1 | 3 | 3
Cn1cc(C(=O)Nc2ccccc2C2=CCCCCC2)c(C(F)(F)F)n1 [Example 112, 1H-pyrazole-4-carboxamide, N-[2-(1-cyclohepten-1-yl)phenyl]-1-methyl-3-(trifluoromethyl)-] | 0.0021 | 0 | 88 | 95 | 2 | 3 | 3 | – | –
Cc1nn(C)c(F)c1C(=O)Nc1ccccc1C1CCCCCC1 [Example 113, 1H-pyrazole-4-carboxamide, N-(2-cycloheptylphenyl)-5-fluoro-1,3-dimethyl-] | 0.013 | 3 | 28 | 60 | 1 | 1 | 3 | 3 | 3
Cn1nc(C(F)F)c(C(=O)Nc2ccccc2C2CCCCCC2)c1Cl [Example 114, 1H-pyrazole-4-carboxamide, 5-chloro-N-(2-cycloheptylphenyl)-3-(difluoromethyl)-1-methyl-] | 0.0036 | 3 | 78 | 90 | 0 | 1 | 2 | 3 | 3
